The values that follow are results of earlier work, collected in paper PMC8225628, “Bispecific repurposed medicines targeting the viral and immunological arms of COVID-19” (Scientific Reports, 2021).

Where only a bound is given, the exact number is not on record here.

One data set has as its system PL^pro. Also noted: method as in PMID 32726803. The conditions noted are these: read-out: Biochemical IC50; cited from earlier work.
Details of data set [1]: method as in PMID 32726803. The conditions noted are these: cited from earlier work.
Details of data set [2]: method as in PMID 32726803. The conditions noted are these: cited from earlier work. This is another data set of the same source.
On the set-up of data set [3]: method as in PMID 32726803. The conditions noted are these: read-out: FFU IC50; cited from earlier work.

One may read the IC50 as the midpoint of a concentration-inhibition curve. As to `Cc1ccc(N)cc1C(=O)N[C@H](C)c1cccc2ccccc12` [GRL-0617], the IC50 with PL^pro is […]; in data set [3], over 100 µM. Further, the Cytopathic-effect potency in data set [1] was 30 µM. The “Viral RNA detection potency” value in data set [2] was over 50 µM.
